One assay deals with Murine L929 cells. As to the kind of experiment: Necroptosis inhibition assay in L929 cells (mTNFα + zVAD, Sytox Green). The note with it: Mus musculus, 10 ng/ml mTNFα and 20 μM zVAD, 6 hours, Sytox Green fluorescence. The class given is cell-based. The method, then: Murine L929 cells (ATCC-CCL-1) were seeded at 10,000 cells/well in a 96-well plate. Cells were treated 48 hours after seeding with 10 ng/ml mTNFα (R&D Systems) and 20 μM zVAD (ChemShuttle) in the presence of different concentrations of compounds ranging from […] to 0.01 μM. Cells treated with 0.1% DMSO or cells treated with TNFα+zVAD were used as control and vehicle respectively.
Assay plates containing cells were incubated for 6 hours at 37° C. and 5% CO2. Necroptosis was assessed using Sytox Green Nucleic Acid Stain (Invitrogen). After incubation, 100 μL of Sytox dye at 2 μM (2×) diluted in HBSS 1× was added in each well and incubated for 15 min at room temperature. Fluorescence (500ex/530em) was recorded using the Cytation 5 microplate reader (Biotek).
(§1) Percentage of necroptosis inhibition was calculated as the percent compared to control and vehicle conditions which correspond to 100% and 0% respectively. The half-maximum necroptosis inhibition (IC50) levels were calculated using GraphPad Prism software and are shown in Table 3 (NT represents compound not tested).

Another assay has as its system Human HT-29 cells. As to the kind of experiment: Necroptosis inhibition assay in HT-29 cells (hTNFα + zVAD + SMAC mimetic, Sytox Green/Hoechst). In kind it is cell-based. To be noted: 10 ng/ml hTNFα, 20 μM zVAD and 100 nM SMAC mimetic, 6 hours, Sytox/Hoechst positive cells, read-out: HT29 necroptosis inhibition IC50. As for the experimental part:
Human HT-29 cells (ATCC-HTB-38) were seeded at 10,000 cells/well in a 96-well plate. Cells were treated 48 hours after seeding with 10 ng/ml hTNFα (R&D Systems), 20 μM zVAD (ChemShuttle) and 100 nM SMAC mimetic (MedChem Express) in the presence of different concentrations of compounds ranging from […] to 0.01 μM. Cells treated with 0.1% DMSO or cells treated with TNFα+zVAD+SMAC mimetic were used as control and vehicle respectively.
Assay plates containing cells were incubated for 6 hours at 37° C. and 5% CO2. Necroptosis was assessed using Sytox Green Nucleic Acid Stain (Invitrogen) and Hoechst staining. After incubation, 100 μL of Sytox dye at 2 μM (2×) diluted in HBSS 1× was added to each well. At the same time, Hoechst stain is added to a final concentration of 10 μM and incubated for 15 min at room temperature. Images were taken for Sytox and Hoechst using the Cytation 5 microplate reader with DAPI and GFP filter cubes (Biotek). Sytox and Hoechst positive cells were counted with CellProfiler software.
as §1

A value given as a limit tells only on which side of the number the result lay.

As to `O=C(c1ccc(-c2ccc3c(Nc4ccc5scnc5c4)ccnc3c2)c(F)c1)N1CCNCC1` [Compound 250, (4-(4-(benzo[d]thiazol-5-ylamino)quinolin-7-yl)-3-fluorophenyl)(piperazin-1-yl)methanone], the IC50 in the assay with Murine L929 cells was 0.344 µM; in the assay on Human HT-29 cells, 2.53 µM.

`O=C(c1ccc(-c2ccc3nccc(Nc4ccc5scnc5c4)c3c2)c(F)c1)N1CC2(CCOCC2)C1` [Compound 251, (4-(4-(benzo[d]thiazol-5-ylamino)quinolin-6-yl)-3-fluorophenyl)(7-oxa-2-azaspiro[3.5]nonan-2-yl)methanone]: the IC50 with Murine L929 cells stood at 0.582 µM; in the assay with Human HT-29 cells, 0.823 µM.

Consider `O=C(c1ccc(-c2ccc3c(Nc4ccc5scnc5c4)ccnc3c2)c(F)c1)N1CC2(CCOCC2)C1` [Compound 252, (4-(4-(benzo[d]thiazol-5-ylamino)quinolin-7-yl)-3-fluorophenyl)(7-oxa-2-azaspiro[3.5]nonan-2-yl)methanone], for which the values for the IC50 with Murine L929 cells and in the assay with Human HT-29 cells were 0.26 µM and 0.244 µM, respectively.

With `c1cc(Nc2ccc3scnc3c2)c2ccc(-c3ccc(C4CCNCC4)cc3)cc2n1` [Compound 253, N-(7-(4-(piperidin-4-yl)phenyl)quinolin-4-yl)benzo[d]thiazol-5-amine], the half-maximal inhibitory concentration (IC50) with Murine L929 cells worked out at 0.271 µM; with Human HT-29 cells, 0.755 µM.

Take `O=C1CN(Cc2ccc(-c3ccc4nccc(Nc5ccc6sccc6c5)c4c3)c(F)c2)CCN1` [Compound 256, 4-(4-(4-(benzo[b]thiophen-5-ylamino)quinolin-6-yl)-3-fluorobenzyl)piperazin-2-one]: the half-inhibitory concentration (IC50) in the assay on Murine L929 cells was over 10 µM.

As to `O=C1CN(Cc2ccc(-c3ccc4nccc(Nc5ccc6[nH]ncc6c5)c4c3)c(F)c2)CCN1` [Compound 271, 4-(4-(4-(1H-indazol-5-ylamino)quinolin-6-yl)-3-fluorobenzyl)piperazin-2-one], the IC50 with Murine L929 cells was over 10 µM.

Take `CN1CCN(C(=O)c2ccc(-c3ccc4nccc(Nc5ccc6scnc6c5)c4c3)c(F)c2)CC1=O` [Compound 273, 4-(4-(4-(benzo[d]thiazol-5-ylamino)quinolin-6-yl)-3-fluorobenzoyl)-1-methylpiperazin-2-one]: the IC50 with Murine L929 cells was 1.1 µM; with Human HT-29 cells, 0.78 µM.

Take `CN1CCN(C(=O)c2ccc(-c3ccc4c(Nc5ccc6scnc6c5)ccnc4c3)c(F)c2)CC1=O` [Compound 274, 4-(4-(4-(benzo[d]thiazol-5-ylamino)quinolin-7-yl)-3-fluorobenzoyl)-1-methylpiperazin-2-one]: the IC50 in the assay with Murine L929 cells came out at 0.515 µM; in the assay on Human HT-29 cells, 1.19 µM.

Regarding `O=C1CN(C(=O)c2ccc(-c3ccc4nccc(Nc5ccc6scnc6c5)c4c3)c(F)c2)CCN1` [Compound 275, 4-(4-(4-(benzo[d]thiazol-5-ylamino)quinolin-6-yl)-3-fluorobenzoyl)piperazin-2-one], the figures for the IC50 with Murine L929 cells and in the assay on Human HT-29 cells were 3.82 µM and 0.689 µM, respectively.

For `CC1CN(C(=O)c2ccc(-c3ccc4nccc(Nc5ccc6scnc6c5)c4c3)c(F)c2)CCN1` (centres unmarked) [Compound 286, (4-(4-(benzo[d]thiazol-5-ylamino)quinolin-6-yl)-3-fluorophenyl)(3-methylpiperazin-1-yl)methanone], the IC50 came out at 0.853 µM with Murine L929 cells and 0.0758 µM in the assay on Human HT-29 cells.

For the compound `O=C1CN(Cc2ccc(-c3ccc4nccc(Nc5ccc6occc6c5)c4c3)c(F)c2)CCN1` [Compound 287, 4-(4-(4-(benzofuran-5-ylamino)quinolin-6-yl)-3-fluorobenzyl)piperazin-2-one], the IC50 in the assay on Murine L929 cells is over 10 µM.

As for `Cn1ncc2cc(Nc3ccnc4ccc(-c5ccc(CN6CCNC(=O)C6)cc5F)cc34)ccc21` [Compound 288, 4-(3-fluoro-4-(4-(1-methyl-1H-indazol-5-ylamino)quinolin-6-yl)benzyl)piperazin-2-one], the 50% inhibitory concentration (IC50) with Murine L929 cells was over 10 µM.

As for `O=C1CN(Cc2ccc(-c3ccc4nccc(Nc5ccc6oncc6c5)c4c3)c(F)c2)CCN1` [Compound 289, 4-(4-(4-(benzo[d]isoxazol-5-ylamino)quinolin-6-yl)-3-fluorobenzyl)piperazin-2-one], the IC50 in the assay on Murine L929 cells is over 10 µM.

Regarding `O=C(c1ccc(-c2ccc3nccc(Nc4ccc5scnc5c4)c3c2)nc1)N1CC2(CNC2)C1` [Compound 294, (6-(4-(benzo[d]thiazol-5-ylamino)quinolin-6-yl)pyridin-3-yl)(2,6-diazaspiro[3.3]heptan-2-yl)methanone], the IC50 in the assay with Murine L929 cells was over 10 µM.

For `O=C(c1ccc(-c2ccc3nccc(Nc4ccc5scnc5c4)c3c2)c(F)c1)N1CC2CNCC2C1` (centres unmarked) [Compound 298, (4-(4-(benzo[d]thiazol-5-ylamino)quinolin-6-yl)-3-fluorophenyl)(hexahydropyrrolo[3,4-c]pyrrol-2(1H)-yl)methanone], in the assay with Murine L929 cells, the IC50 is under 10 µM.

On to `O=C(c1ccc(-c2ccc3c(Nc4ccc5scnc5c4)ccnc3c2)c(F)c1)N1CC2CNCC2C1` (centres unmarked) [Compound 302, (4-(4-(benzo[d]thiazol-5-ylamino)quinolin-7-yl)-3-fluorophenyl)(hexahydropyrrolo[3,4-c]pyrrol-2(1H)-yl)methanone], for which, in the assay with Murine L929 cells, the IC50 was under 10 µM.

In the case of `O=C(c1ccc(-c2ccc3nccc(Nc4ccc5scnc5c4)c3c2)c(F)c1)N1C[C@H]2C[C@@H](C1)N2` [Compound 304, (4-(4-(benzo[d]thiazol-5-ylamino)quinolin-6-yl)-3-fluorophenyl)((1R,5S)-3,6-diazabicyclo[3.1.1]heptan-3-yl)methanone], the IC50 in the assay on Murine L929 cells was under 10 µM.

In the case of `O=C(c1ccc(-c2ccc3nccc(Nc4ccc5scnc5c4)c3c2)c(F)c1)N1[C@@H]2CNC[C@H]1C2` [Compound 308, (4-(4-(benzo[d]thiazol-5-ylamino)quinolin-6-yl)-3-fluorophenyl)((1R,5S)-3,6-diazabicyclo[3.1.1]heptan-6-yl)methanone], the IC50 in the assay on Murine L929 cells was under 10 µM.

For `Fc1cc(OC2CCNCC2)ccc1-c1ccc2c(Nc3ccc4scnc4c3)ccnc2c1` [Compound 309, N-(7-(2-fluoro-4-(piperidin-4-yloxy)phenyl)quinolin-4-yl)benzo[d]thiazol-5-amine], the IC50 in the assay with Murine L929 cells is under 10 µM.

For the compound `O=C(c1ccc(-c2ccc3c(Nc4ccc5scnc5c4)ccnc3c2)c(F)c1)N1CCC2(CCNC2)CC1` [Compound 314, (4-(4-(benzo[d]thiazol-5-ylamino)quinolin-7-yl)-3-fluorophenyl)(2,8-diazaspiro[4.5]decan-8-yl)methanone], the concentration for half-maximal inhibition (IC50) in the assay on Murine L929 cells was under 10 µM.

Take `Fc1cc(CN2CCNCC2)ccc1-c1ccc2nccc(Nc3ccc4sccc4c3)c2c1` [Compound 385, N-(benzo[b]thiophen-5-yl)-6-(2-fluoro-4-(piperazin-1-ylmethyl)phenyl)quinolin-4-amine]: in the assay on Murine L929 cells, the IC50 is over 10 µM.

On to `Fc1cc(CN2CCNCC2)ccc1-c1ccc2nccc(Nc3ccc4occc4c3)c2c1` [Compound 386, N-(benzofuran-5-yl)-6-(2-fluoro-4-(piperazin-1-ylmethyl)phenyl)quinolin-4-amine], for which the IC50 in the assay with Murine L929 cells is over 10 µM.

Regarding `Fc1cc(CN2CCNCC2)ccc1-c1ccc2nccc(Nc3ccc4[nH]ncc4c3)c2c1` [Compound 387, 6-(2-fluoro-4-(piperazin-1-ylmethyl)phenyl)-N-(1H-indazol-5-yl)quinolin-4-amine], in the assay with Murine L929 cells, the IC50 was over 10 µM.

As for `Cn1ncc2cc(Nc3ccnc4ccc(-c5ccc(CN6CCNCC6)cc5F)cc34)ccc21` [Compound 388, 6-(2-fluoro-4-(piperazin-1-ylmethyl)phenyl)-N-(1-methyl-1H-indazol-5-yl)quinolin-4-amine], the IC50 in the assay on Murine L929 cells was over 10 µM.

One may read the IC50 as the concentration that gives 50% inhibition.

Values taken from patent US20250092031A1, “RIPK3 INHIBITORS AND METHODS OF USE” (Momentum Therapeutics, Inc., priority 2023, published 2025).
